Results on 11 compounds are retold here after patent US11447466B2, “Substituted indole compounds useful as inhibitors of TLR7/8/9” (BRISTOL-MYERS SQUIBB COMPANY, priority 2017, dated 2022).

pIC50: −log10 of the molar value.

Format in all cases: cell-based
Test [1] concerns the target T1, human TLR9 (Homo sapiens, UniProt Q9NR96).
T1 construct: host or cells: HEK-Blue cells
T1 sequence (Q9NR96 26-1032): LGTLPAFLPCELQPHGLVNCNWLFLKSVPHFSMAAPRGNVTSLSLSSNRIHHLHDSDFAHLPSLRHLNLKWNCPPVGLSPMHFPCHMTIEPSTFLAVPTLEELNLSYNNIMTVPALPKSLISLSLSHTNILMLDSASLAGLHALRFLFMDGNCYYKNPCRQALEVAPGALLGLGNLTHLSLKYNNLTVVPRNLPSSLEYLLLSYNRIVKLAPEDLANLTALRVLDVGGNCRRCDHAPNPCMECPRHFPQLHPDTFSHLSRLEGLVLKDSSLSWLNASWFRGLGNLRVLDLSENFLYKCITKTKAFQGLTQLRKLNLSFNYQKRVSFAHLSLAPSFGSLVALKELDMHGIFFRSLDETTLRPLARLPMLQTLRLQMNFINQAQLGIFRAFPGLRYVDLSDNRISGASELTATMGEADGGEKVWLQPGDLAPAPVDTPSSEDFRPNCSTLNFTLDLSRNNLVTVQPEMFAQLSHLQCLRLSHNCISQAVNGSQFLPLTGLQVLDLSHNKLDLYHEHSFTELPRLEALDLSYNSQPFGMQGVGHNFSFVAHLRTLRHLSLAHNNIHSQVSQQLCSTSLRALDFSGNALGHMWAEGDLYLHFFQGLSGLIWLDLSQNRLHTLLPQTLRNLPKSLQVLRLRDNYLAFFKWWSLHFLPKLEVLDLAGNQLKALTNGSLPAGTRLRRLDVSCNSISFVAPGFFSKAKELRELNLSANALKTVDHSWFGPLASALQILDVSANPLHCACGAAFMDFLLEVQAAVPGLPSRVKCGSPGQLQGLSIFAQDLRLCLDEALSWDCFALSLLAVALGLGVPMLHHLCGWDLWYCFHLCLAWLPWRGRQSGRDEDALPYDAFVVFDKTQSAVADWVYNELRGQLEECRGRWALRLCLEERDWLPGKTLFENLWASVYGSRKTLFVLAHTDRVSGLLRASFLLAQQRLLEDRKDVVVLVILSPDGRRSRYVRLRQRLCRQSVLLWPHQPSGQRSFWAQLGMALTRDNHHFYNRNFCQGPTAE
Nature of the test: TLR9 inhibition reporter assay (HEK-Blue SEAP reporter, ODN2006 stimulation). As to conditions: HEK-Blue cells overexpressing human TLR9, SEAP reporter, ODN2006 5 nM, 22 hour incubation. On the procedure: (§1) TLR7/8/9 Inhibition Reporter Assays
(§2) HEK-Blue™-cells (Invivogen) overexpressing human TLR7, TLR8 or TLR9 receptors were used for screening inhibitors of these receptors using an inducible SEAP (secreted embryonic alkaline phosphatase) reporter gene under the control of the IFN-β minimal promoter fused to five NF-κB and AP-1-binding sites. Briefly, cells are seeded into Greiner 384 well plates (15000 cells per well for TLR7, 20,000 for TLR8 and 25,000 for TLR9) and then treated with test compounds in DMSO to yield a final dose response concentration range of 0.05 nM-50 μM. After a 30 minute compound pre-treatment at room temperature, the cells are then stimulated with a TLR7 ligand (gardiquimod at a final concentration of 7.5 μM), TLR8 ligand (R848 at a final concentration of 15.9 μM) or TLR9 ligand (ODN2006 at a final concentration of 5 nM) to activate NF-κB and AP-1 which induce the production of SEAP. After a 22 hour incubation at 37° C., 5% CO2, SEAP levels are determined with the addition of HEK-Blue™ Detection reagent (Invivogen), a cell culture medium that allows for detection of SEAP, according to manufacturer's specifications. The percent inhibition is determined as the % reduction in the HEK-Blue signal present in wells treated with agonist plus DMSO alone compared to wells treated with a known inhibitor.
(Reporter assays use an easily measured gene product as a stand-in for the process of interest.)

The target of test [2] is T2, human TLR7 (Homo sapiens, UniProt Q9NYK1).
T2 construct: host or cells: HEK-Blue cells
T2 sequence (Q9NYK1 27-1049): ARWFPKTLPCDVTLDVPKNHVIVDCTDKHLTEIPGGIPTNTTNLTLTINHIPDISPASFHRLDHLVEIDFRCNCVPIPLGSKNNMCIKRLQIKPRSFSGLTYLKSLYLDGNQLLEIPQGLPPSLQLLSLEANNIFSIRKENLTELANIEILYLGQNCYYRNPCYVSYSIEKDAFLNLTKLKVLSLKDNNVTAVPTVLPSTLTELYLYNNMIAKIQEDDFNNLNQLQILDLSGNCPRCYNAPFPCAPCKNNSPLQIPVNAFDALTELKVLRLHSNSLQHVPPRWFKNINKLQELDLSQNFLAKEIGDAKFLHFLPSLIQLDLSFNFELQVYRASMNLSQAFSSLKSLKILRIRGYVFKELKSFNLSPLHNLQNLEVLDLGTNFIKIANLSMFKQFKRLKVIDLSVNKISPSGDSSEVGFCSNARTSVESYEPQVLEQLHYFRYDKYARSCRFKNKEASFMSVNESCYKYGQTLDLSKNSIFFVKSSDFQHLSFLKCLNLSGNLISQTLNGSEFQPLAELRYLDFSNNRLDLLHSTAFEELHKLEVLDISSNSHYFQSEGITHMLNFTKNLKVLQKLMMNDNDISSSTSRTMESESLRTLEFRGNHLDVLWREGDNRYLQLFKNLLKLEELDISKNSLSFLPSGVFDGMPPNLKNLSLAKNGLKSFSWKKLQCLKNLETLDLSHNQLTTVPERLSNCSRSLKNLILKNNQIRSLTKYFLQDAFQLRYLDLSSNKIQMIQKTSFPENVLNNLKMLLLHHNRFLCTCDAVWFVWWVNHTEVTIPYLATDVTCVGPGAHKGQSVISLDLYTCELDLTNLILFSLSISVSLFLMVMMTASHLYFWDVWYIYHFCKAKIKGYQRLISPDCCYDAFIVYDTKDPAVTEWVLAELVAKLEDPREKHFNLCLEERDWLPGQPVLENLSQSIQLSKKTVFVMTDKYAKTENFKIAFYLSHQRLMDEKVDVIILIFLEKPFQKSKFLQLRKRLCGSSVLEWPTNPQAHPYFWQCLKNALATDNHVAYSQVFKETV
Nature of the test: TLR7 inhibition reporter assay (HEK-Blue SEAP reporter, gardiquimod stimulation). To be noted: HEK-Blue cells overexpressing human TLR7, SEAP reporter, gardiquimod 7.5 μM, 22 hour incubation. As to the method:
as §1, §2

The target in test [3] is T3, human TLR8 (Homo sapiens, UniProt Q9NR97).
T3 construct: host or cells: HEK-Blue cells
T3 sequence (Q9NR97 27-1041): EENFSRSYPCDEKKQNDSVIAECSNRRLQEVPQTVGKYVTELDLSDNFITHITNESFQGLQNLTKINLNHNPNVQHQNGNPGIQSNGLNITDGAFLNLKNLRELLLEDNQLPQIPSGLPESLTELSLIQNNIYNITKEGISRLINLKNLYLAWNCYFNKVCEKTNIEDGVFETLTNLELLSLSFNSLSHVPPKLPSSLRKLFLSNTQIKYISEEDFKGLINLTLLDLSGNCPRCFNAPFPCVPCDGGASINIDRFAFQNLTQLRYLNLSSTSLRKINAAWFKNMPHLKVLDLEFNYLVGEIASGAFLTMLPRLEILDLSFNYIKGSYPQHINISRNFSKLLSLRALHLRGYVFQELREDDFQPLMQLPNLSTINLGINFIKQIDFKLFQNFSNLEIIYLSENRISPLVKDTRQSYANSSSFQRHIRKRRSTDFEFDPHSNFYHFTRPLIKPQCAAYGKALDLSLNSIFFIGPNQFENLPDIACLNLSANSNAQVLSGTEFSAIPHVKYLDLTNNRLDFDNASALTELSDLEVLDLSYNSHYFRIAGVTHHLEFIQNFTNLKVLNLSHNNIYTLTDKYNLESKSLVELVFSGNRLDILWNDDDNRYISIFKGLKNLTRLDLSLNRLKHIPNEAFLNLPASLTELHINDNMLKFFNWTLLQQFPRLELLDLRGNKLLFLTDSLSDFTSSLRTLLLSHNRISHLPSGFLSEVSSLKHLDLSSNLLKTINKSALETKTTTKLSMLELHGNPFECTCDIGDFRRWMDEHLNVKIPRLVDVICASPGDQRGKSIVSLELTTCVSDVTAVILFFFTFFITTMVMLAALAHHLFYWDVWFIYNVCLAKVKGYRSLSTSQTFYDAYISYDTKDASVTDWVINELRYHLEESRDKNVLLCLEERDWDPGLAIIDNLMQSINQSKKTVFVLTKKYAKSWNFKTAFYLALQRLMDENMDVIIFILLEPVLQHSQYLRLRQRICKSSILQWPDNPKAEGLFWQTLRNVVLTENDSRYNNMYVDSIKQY
Nature of the test: TLR8 inhibition reporter assay (HEK-Blue SEAP reporter, R848 stimulation). As to conditions: HEK-Blue cells overexpressing human TLR8, SEAP reporter, R848 15.9 μM, 22 hour incubation. On the procedure:
as §1, §2

A word on the pIC50: it is the IC50 on a negative log10 scale, so that one unit is a factor of ten. Low readings indicate a large IC50, high ones a small IC50. `COCCN1CCC(c2ccc3[nH]c(-c4cc(-c5cncnc5)c(=O)n(C)c4)c(C(C)C)c3c2)CC1` [Example 103, 5-(3-isopropyl-5-(1-(2-methoxyethyl)piperidin-4-yl)-1H-indol-2-yl)-1-methyl-3-(pyrimidin-5-yl)pyridin-2(1H)-one]: the results for the pIC50 in test [1], in test [2] and in test [3] were 5.68, 8.02 and 8.89, respectively.
With `Cc1cc(-c2[nH]c3ccc(C4CCN(Cc5cnn(C(C)C)c5)CC4)cc3c2C(C)C)cn(C)c1=O` [Example 227], the figures for the pIC50 in test [1], in test [2] and in test [3] were 5.52, 8.42 and 8.39, respectively.
For `CC(C)c1c(-c2cc(-c3cncnc3)c(=O)n(C)c2)[nH]c2ccc(C3CCN(CC4CCOC4)CC3)c(F)c12` (stereo not drawn) [Example 259, 5-(4-fluoro-3-isopropyl-5-(1-((tetrahydrofuran-3-yl)methyl)piperidin-4-yl)-1H-indol-2-yl)-1-methyl-3-(pyrimidin-5-yl)pyridin-2(1H)-one], the negative-log IC50 (pIC50) in test [1] was 6.01; in test [2] it was 8.21; in test [3] it was 9.22.
Turning to `CNC(C)(C)C(=O)N1CCC(c2ccc3[nH]c(-c4cc(C)c(=O)n(C)c4)c(C(C)C)c3c2)CC1` [Example 298, 5-(3-isopropyl-5-(1-(2-methyl-2-(methylamino)propanoyl)piperidin-4-yl)-1H-indol-2-yl)-1,3-dimethylpyridin-2(1H)-one], the negative logarithm of the IC50 (pIC50) was 4.67 in test [1], 6.77 in test [2] and 6.83 in test [3].
Take `CNC(=O)CN1CCC(c2ccc3[nH]c(-c4cc(C)c(=O)n(C)c4C)c(C(C)C)c3c2)CC1` [Example 139, 2-(4-(3-isopropyl-2-(1,2,5-trimethyl-6-oxo-1,6-dihydropyridin-3-yl)-1H-indol-5-yl)piperidin-1-yl)-N-methylacetamide]: the negative-log IC50 (pIC50) in test [1] is 4.98; in test [2], 7.81; in test [3] it was 8.38.
For `Cc1cc(-c2[nH]c3ccc(C4CCNCC4)cc3c2C(C)C)cn(CC(F)F)c1=O` [Example 40, 1-(2,2-difluoroethyl)-5-(3-isopropyl-5-(piperidin-4-yl)-1H-indol-2-yl)-3-methylpyridin-2(1H)-one], the results for the pIC50 in test [1], in test [2] and in test [3] were 5.35, 8.28 and 7.77, respectively.
For `CCn1cc(-c2[nH]c3ccc(C4CCN(C(=O)CN(C)C)CC4)cc3c2C(C)C)c(C)c(C)c1=O` [Example 281, 5-(5-(1-(dimethylglycyl)piperidin-4-yl)-3-isopropyl-1H-indol-2-yl)-1-ethyl-3,4-dimethylpyridin-2(1H)-one], the figures for the pIC50 in test [1], in test [2] and in test [3] were 5.24, 7.32 and 7.53, respectively.
For the compound `Cc1cc(-c2[nH]c3ccc(C4CCN(C5CCS(=O)(=O)C5)CC4)cc3c2C(C)C)cn(C)c1=O` (stereo not drawn) [Example 81, 5-(5-(1-(1,1-dioxidotetrahydrothiophen-3-yl)piperidin-4-yl)-3-isopropyl-1H-indol-2-yl)-1,3-dimethylpyridin-2(1H)-one], the pIC50 in test [1] is at most 4.30; in test [2], 8.06; in test [3], 7.69.
For the compound `CC(C)c1c(-c2cc(CCC(C)(C)C)c(=O)n(C)c2)[nH]c2ccc(C3CCNCC3)cc12` [Example 61, 3-(3,3-dimethylbutyl)-5-(3-isopropyl-5-(piperidin-4-yl)-1H-indol-2-yl)-1-methylpyridin-2(1H)-one], the pIC50 in test [1] was 5.68; in test [2], 5.66; in test [3], 5.64.
For `Cc1cc(-c2[nH]c3ccc(C4CCNCC4)cc3c2C(C)C)cn(C2CCOC2)c1=O` (stereo not drawn) [Example 42, 5-(3-isopropyl-5-(piperidin-4-yl)-1H-indol-2-yl)-3-methyl-1-(tetrahydrofuran-3-yl)pyridin-2(1H)-one], the pIC50 in test [1] is 5.17; in test [2], 7.39; in test [3], 6.87.
In the case of `Cc1cc(-c2[nH]c3ccc(C4CCN(C5COC5)CC4)cc3c2C(C)C)cn(C)c1=O` [Example 171, 5-(3-isopropyl-5-(1-(oxetan-3-yl)piperidin-4-yl)-1H-indol-2-yl)-1,3-dimethylpyridin-2(1H)-one], the pIC50 in test [1] was 4.60; in test [2], 8.29; in test [3], 7.98.
